The values below come from US20060002887A1, “Ionene oligomers and polymers” (Genzyme Corporation, priority 2002, published 2006).

In general, IC50 refers to the point on the concentration scale where inhibition reaches its midpoint. A higher IC50 goes with lower potency.

Data set [1] relates to A-549 lung epithelial cell line. Nature of the data set: Alamar Blue in vitro cytotoxicity. Type of data set: cell-based. Here is the method:
The oligomers were screened for in vitro cytotoxicity following 18-24 hr exposure using the metabolic indicator Alamar Blue™ (Alamar Biosciences, Sacramento, Calif.) against the A-549 lung epithelial cell line according to the manufacturer's instructions. Briefly, flat-bottom polystyrene microtiter plates were seeded with 2×10^4 cells in Ham's F-12 medium (Invitrogen) containing 10% fetal bovine serum (FBS) and were incubated ˜48 hr at 37° C., until cells were confluent. Medium was then aspirated off and replaced with medium lacking FBS. The oligomers were added to the first row (final concentration 5 mg/ml) and serial 2-fold dilutions were prepared across the plate. Plates were incubated 18-24 hr at 37° C.; medium containing test compounds was aspirated off, wells were washed once with PBS and fresh medium (lacking FBS and phenol red) was added. Alamar Blue™ was added (final concentration 30%); cells were incubated 4 hr and absorbance was read at 570 nm. The IC50 was then calculated.
(§1) Poly(trimethylene dipyridine-alt-5-oxanonane) having a molecular weight 0.5-1 kDa was tested in A-549 lung epithelial cells to determine its IC50 value in comparison with tobramycin, a conventional antibiotic. In addition, the minimum inhibitory concentrations for the two compounds were determined in vitro for a number of bacterial strains and species. The results are as shown below, where all concentrations are expressed as μg/mL: […]
Background: The colour change of resazurin is a common sign of viable cells or microbes.

In the next data set the test system is P. aeruginosa. As to conditions: within 11 passages, published studies; cited from earlier work.
The subject of the next data set is Pseudomonas aeruginosa. Nature of the data set: MIC broth dilution assay. The data set is classed as cell-based. As to the method:
(§2) Both about 1-10 kDa fractions of poly(trimethylene dipyridine-alt-octane chloride) (TMDP-C8) and about 1.2 kDa poly(trimethylene dipyridine-alt-2,7-dihydroxyoctane chloride) (TMDP-C8(OH)2) have broad, though not identical antimicrobial activity.
as §1

Data set [2] has as its system Stenotrophomonas maltophilia. Nature of the data set: MIC broth dilution assay. Type of data set: cell-based. As to conditions: S. maltophilia, read-out: minimum inhibitory concentration. As to the method: as §2, §1
For orientation: Dilution methods test growth across graded concentrations, often in twofold steps.

The subject of a further data set is Burkholderia cepacia. Nature of the data set: MIC broth dilution assay. The data set is classed as cell-based. As to conditions: B. cepacia, read-out: minimum inhibitory concentration. As to the method: as §2, §1
The subject of another data set is Staphylococcus aureus. Nature of the data set: MIC broth dilution assay. Type of data set: cell-based. As to conditions: S. aureus, read-out: minimum inhibitory concentration. Here is the method:
as §2, §1

On the set-up of data set [3]: species or system pigs. To be noted: pig, in vivo. Here is the method: The non-substituted C8-containing compound TMDP-C8 (about 1-10 kDa) was tested at 10 mg/ml for its ability to reduce S. aureus infections introduced into dermal wounds in pigs.
A further data set has as its system MRSA. To be noted: over 15 passages, published studies; cited from earlier work.

Converted amounts (≈) assume the structure as drawn.

For “poly(trimethylene dipyridine-alt-octane) [TMDP-C8 >1k]”, the “IC50, In vitro Cytotoxicity of Compounds Tested in First Rat Lung Study” value in data set [1] was 30 µg/mL.
Still for that read-out and setting: the figure for “poly(trimethylene dipyridine-alt-octane) [TMDP-C8 1-3k]” is 322 µg/mL.
In the case of gentamicin, the “rise of MIC” value in the data set on P. aeruginosa was 190 fold.
`NC[C@H]1O[C@H](O[C@H]2[C@H](O)[C@@H](O[C@H]3O[C@H](CO)[C@@H](O)[C@H](N)[C@H]3O)[C@H](N)C[C@@H]2N)[C@H](N)C[C@@H]1O` [Tobramycin, tobramycin] had an IC50 in data set [1] (Homo sapiens, A549, A-549 lung epithelial cells) of 5000 µg/mL (≈ 10700 µM). Besides, in the data set with Pseudomonas aeruginosa (P. aeruginosa PA01), the minimum inhibitory concentration is 0.39 µg/mL (≈ 0.834 µM). The MIC in the data set with Pseudomonas aeruginosa (Pseudomonas aeruginosa, P. aeruginosa G38, read-out: minimum inhibitory concentration) was 0.39 µg/mL (≈ 0.834 µM); in data set [2], 25 µg/mL (≈ 53.5 µM); in the data set on Burkholderia cepacia, over 50 µg/mL; in the data set on Staphylococcus aureus, 0.195 µg/mL (≈ 0.417 µM).
For “poly(trimethylene dipyridine-alt-octane chloride) [TMDP-C8]”, in data set [3], the “effect on wound healing” value was “did not inhibit or retard healing”.
`CCn1cc(C(=O)O)c(=O)c2cc(F)c(N3CCNCC3)cc21` [norfloxacin]: the “rise of MIC” value is recorded as 85 fold in the data set on MRSA and 10 fold with P. aeruginosa.
